From PubChem BioAssay (NCI)
Where “and” joins values, the source holds several entries; their conditions need not be identical. Equal values may be shown once.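 Growth conditions: 96-well plates. Treatment: test compound, 48 hours, 5 concentrations. Analysis: linear interpolation between bracketing concentrations; unreached endpoints set to highest concentration. GI50 = concentration required for 50% inhibition of growth. TGI is the concentration that stops growth completely.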

Experiments:
Experiment in all cases: NCI anticancer screen, dose series, 48 h
MDA-MB-231 breast = tested on: MDA-MB-231 breast
SK-MEL-5 melanoma = tested on: SK-MEL-5 melanoma
MDA-MB-435 = tested on: MDA-MB-435
BT-549 breast = tested on: BT-549 breast
HCC-2998 colon = tested on: HCC-2998 colon
DLD-1 colon = tested on: DLD-1 colon
KM20L2 colon = tested on: KM20L2 colon
M19-MEL melanoma = tested on: M19-MEL melanoma
DMS 114 small cell lung = tested on: DMS 114 small cell lung

Compound	GI50 (MDA-MB-231 breast)	TGI (MDA-MB-231 breast)	GI50 (SK-MEL-5 melanoma)	TGI (SK-MEL-5 melanoma)	GI50 (MDA-MB-435)	TGI (MDA-MB-435)	GI50 (BT-549 breast)	TGI (BT-549 breast)	GI50 (HCC-2998 colon)	TGI (HCC-2998 colon)	TGI (DLD-1 colon)	TGI (KM20L2 colon)	TGI (M19-MEL melanoma)	TGI (DMS 114 small cell lung)
C[C@]12CC[C@@H]3c4ccc(O)cc4CC[C@H]3[C@@H]1CC[C@@H]2NS(=O)(=O)c1cccc(C(F)(F)F)c1	2.39 µM	6.77 µM	1.79 µM	3.29 µM	2.8 µM	8.62 µM	2.7 µM	7.48 µM	4.58 µM	17.9 µM				
O=C(CCCCCCSc1nc(-c2ccccc2)cc(-c2ccccc2)n1)NO	2.54 µM	7.62 µM	1.46 µM	3.48 µM	1.98 µM	11.2 µM	3.16 µM	18.4 µM	3.07 µM	11.9 µM				
C/C(=C\c1ccn(-c2ccc(N)c(F)c2)n1)[C@@H]1C[C@@H]2O[C@]2(C)CCC[C@H](C)[C@H](O)[C@@H](C)C(=O)C(C)(C)[C@@H](O)CC(=O)O1	0.0695 µM	> 50 µM	0.00882 µM	6.54 µM			0.041 µM	25.4 µM	0.0287 µM	> 50 µM				
N=c1c2c(-c3ccccc3)c(-c3ccccc3)n(Cc3ccccc3)c2ncn1CCCO	1.4 µM	8.33 µM	0.901 µM	2.16 µM	1.61 µM	16.8 µM	7.81 µM	21.2 µM	1.43 µM	7.07 µM				
NC(=O)c1oc([N+](=O)[O-])c(-c2ccccc2)c1-c1ccccc1		38.6 µM		14.2 µM		28.7 µM		40.6 µM						
COc1ccc(-c2cc(-c3ccccc3)nc(N3CCN(CCNc4ccnc5cc(Cl)ccc45)CC3)n2)cc1	1.81 µM	3.43 µM	1.62 µM	3 µM	1.8 µM	3.31 µM	14.6 µM	32.3 µM	1.46 µM	3.02 µM				
CN(CC(=O)O)c1ccc(/C=C/c2ccnc3ccccc23)cc1		> 100 µM		31.7 µM		51.1 µM		70.4 µM		53 µM				
C[C@H]1[C@H](C)CC[C@]2(C(=O)N3CCN(C)CC3)CC[C@]3(C)C(=CC[C@@H]4[C@@]5(C)C/C(=C/c6cccnc6)C(=O)C(C)(C)[C@@H]5CC[C@]43C)[C@H]12	0.943 µM	2.25 µM	1.14 µM	2.54 µM	1.13 µM	2.49 µM			1.28 µM	2.67 µM				
N#Cc1cccc(C(=O)Nc2cccc(NC(=O)c3cccc(C#N)c3)c2)c1	75.9 µM	> 100 µM	29.2 µM	> 100 µM	> 100 µM	> 100 µM	> 100 µM	> 100 µM	> 100 µM	> 100 µM				
CC(C)C[C@H](NC(=O)[C@H]1O[C@@H]1C(=O)O)C(=O)NCCc1ccc(O)cc1	> 100 µM	> 100 µM	> 100 µM	> 100 µM	> 100 µM	> 100 µM	> 100 µM	> 100 µM	> 100 µM	> 100 µM				
CCCCCCC#Cc1ccccc1C#CCO	> 100 µM	> 100 µM	16.8 µM	30.8 µM	18.4 µM	37.2 µM	17 µM	32.9 µM	23.7 µM	42.6 µM				
COc1ccc(-c2cnnn2-c2cc(OC)c3c(c2)OCO3)cc1	0.194 µM	4.63 µM	0.185 µM	7.33 µM	0.0202 µM	0.0512 µM	0.101 µM	28.6 µM	0.307 µM					
COc1ccc(C/C(C)=C(\c2ccc(OCCN3CCOCC3)cc2)c2ccc(OC(=O)Cc3ccccc3)cc2)cc1	0.583 µM	1.26 µM	0.485 µM	0.93 µM	0.632 µM	1.34 µM	0.502 µM	0.996 µM	0.668 µM	1.49 µM				
Fc1cccc2cc3ccc4cccc5ccc(c12)c3c45				> 100 µM						> 100 µM	> 100 µM	> 100 µM	> 100 µM	> 100 µM
COc1cc(C(O)c2nc3ccccc3s2)cc(OC)c1OC (stereo not given)	58.7 µM	> 100 µM	7.35 µM	79.5 µM	20.4 µM	> 100 µM	60.6 µM	> 100 µM	> 100 µM	> 100 µM				
COc1ccc(-c2nnc(SCC(=O)Nc3ccc(/C(C)=N\O)cc3)n2-c2ccccc2)cc1OC	4.26 µM	23.8 µM	> 100 µM	> 100 µM	> 100 µM	> 100 µM	13.7 µM	> 100 µM	> 100 µM	> 100 µM				
Cc1ccc(/C=C2/SC(Nc3nc(-c4nc(NC5=NC(=O)/C(=C\c6ccc(C)cc6)S5)sc4C)c(C)s3)=NC2=O)cc1	1.36 µM	19.9 µM	0.077 µM				1.21 µM	31.9 µM	1.71 µM	9.92 µM				
O=C1Nc2ccccc2C1Cc1ccc([N+](=O)[O-])cc1 (stereo not given)		> 100 µM		> 100 µM		> 100 µM		> 100 µM		> 100 µM				
Cc1nc2cnc3cc(F)c(-c4ccc(Oc5ncccn5)cc4Cl)cc3c2n1[C@H]1CCN(C(=O)CO)C[C@@H]1F	0.101 µM	5.83 µM	0.49 µM	14.7 µM	0.0692 µM	> 60.7 µM	7.51 µM	23.1 µM	0.261 µM	15.3 µM				
NC(=NC1CCCCCCC1)c1ccc(N2CCN(c3ccc(C(N)=NC4CCCCCCC4)cc3)CC2)cc1	12.5 µM	30.6 µM	1.72 µM	7.66 µM	5.25 µM	17.9 µM			14.4 µM	48 µM				
Cc1ccc2c(c1C)-c1c(ccc(C)c1C)C(=O)C2=O		8.57 µM		1.29 µM		0.619 µM		1.06 µM		18 µM				
C=CC1=C[C@@H]2[C@@H]3O[C@]4(CC[C@H](O4)[C@@H](C)C[C@@H](O)C3=O)C[C@H](O)C3=NCC[C@@]32CC1	< 0.00333 µM	0.0121 µM	< 0.00333 µM	< 0.00333 µM	< 0.00333 µM	0.00334 µM	< 0.00333 µM	< 0.00333 µM	< 0.00333 µM	< 0.00333 µM				
CC1=CCC(OC(=O)C(C)(C)CCC(O)(C(=O)OC2(C(C)C)CCC3(C)OC3C2)C(C)C)(C(C)C)CC1 (stereo not given)	0.643 µM	1.39 µM	0.197 µM	0.725 µM	0.355 µM	1.04 µM	0.696 µM	1.51 µM	2.13 µM	7.33 µM				

Compound	GI50 (MDA-MB-231 breast)	TGI (MDA-MB-231 breast)	GI50 (SK-MEL-5 melanoma)	TGI (SK-MEL-5 melanoma)	GI50 (MDA-MB-435)	TGI (MDA-MB-435)	GI50 (BT-549 breast)	TGI (BT-549 breast)	GI50 (HCC-2998 colon)	TGI (HCC-2998 colon)	TGI (DLD-1 colon)	TGI (KM20L2 colon)	TGI (M19-MEL melanoma)	TGI (DMS 114 small cell lung)
COc1ccc(C(=O)COc2cccc(/C=C3\CSc4ccccc4C3=O)c2)cc1	4.33 µM	12.5 µM	1.78 µM	3.27 µM	1.98 µM	4.62 µM	1.8 µM	3.67 µM	1.82 µM	3.39 µM				
CC(=O)Nc1ccccc1C=C1c2ccccc2-c2ccccc21		58.2 µM		> 100 µM		> 100 µM		98.3 µM		> 100 µM				
COc1ccc2c(c1)c(-c1nc(-c3c[nH]c4ncccc34)cs1)cn2CCCCN1CCOCC1	1.7 µM	3.5 µM	1.75 µM	3.16 µM	1.7 µM	3.17 µM	3.74 µM	15.5 µM	1.91 µM	3.7 µM				
COCC1N=C(c2cc(OC)c(OC)c(OC)c2-c2cc3c(cc2C2OCCCO2)OCO3)O[C@H]1c1ccccc1 (stereo not given in full)				> 100 µM						> 100 µM	> 100 µM	> 100 µM	> 100 µM	> 100 µM
CC1CC2C(=O)N(c3ccccc3)C(=O)C2c2c1c1ccccc1n2Cc1ccccc1 (stereo not given)				> 100 µM							> 100 µM		> 100 µM	> 100 µM
CN(C)c1ccc(-c2cc(-c3ccc(Nc4nc(Nc5ccccc5)nc(Nc5ccc(Cl)cc5)n4)cc3)nc(N)n2)cc1	5.64 µM	23.4 µM	1.89 µM	11.6 µM	4.83 µM	74.9 µM	3.64 µM	25 µM	13.7 µM	87.9 µM				
c1cc(CCN2CCCCC2)ccn1		> 100 µM		> 100 µM		> 100 µM		> 100 µM						
Cn1ccc2c(c1=O)C(=O)c1nccc3c1c-2nc1ccccc13	1.64 µM	3.13 µM	1.51 µM	2.84 µM	1.62 µM	3.13 µM	2.12 µM	4.77 µM	1.72 µM	3.15 µM				
O=C1/C(=C/c2ccccc2F)CNC/C1=C\c1ccccc1F	1.18 µM and 0.653 µM	3.17 µM and 2.36 µM	1.22 µM and 1.59 µM	2.85 µM and 3.05 µM	0.482 µM and 0.472 µM	1.46 µM and 1.92 µM	0.434 µM and 0.782 µM	1.43 µM and 2.25 µM	1.13 µM and 0.359 µM	2.38 µM and 1.16 µM				
COC(=O)c1cc(-c2cc(OC)c(OC)c(OC)c2)[nH]c1N/N=C/c1c(Cl)cccc1Cl	2.75 µM	22.1 µM	3.17 µM	17.6 µM	0.247 µM	8.61 µM	2.74 µM	16.3 µM	2.36 µM	18.4 µM				
COc1ccc(C(=O)/C=C/c2c(C(F)(F)F)nc3sccn23)cc1OC	5.91 µM	> 100 µM	4.2 µM	> 100 µM	1.85 µM	> 100 µM	3.25 µM	> 100 µM	5.07 µM	97.5 µM				
N#Cc1c(N)nc(N2CCOCC2)c(C#N)c1-c1ccc(Cl)cc1	17.5 µM	90.9 µM	27.4 µM	> 100 µM	65.3 µM	> 100 µM	32 µM	> 100 µM	21.7 µM	99.2 µM				
CCN1CCN(CC(=O)Nc2nc3ccc(NCc4ccc(Cl)cc4)cc3s2)CC1	1.89 µM	4.02 µM	1.67 µM	3.07 µM	1.9 µM	3.81 µM	10.6 µM	25 µM						
O=c1c(Sc2c(O)c3ccccc3c3ccccc3c2=O)c(O)c2ccccc2c2ccccc12				> 100 µM						> 100 µM	> 100 µM	> 100 µM	> 100 µM	92.3 µM
C=CCN(N=O)C(=O)N(CCCC(NC(C)=O)C(=O)NCc1ccccc1)Cc1ccccc1 (stereo not given)				93.8 µM								> 100 µM	> 100 µM	> 100 µM
CC(=O)NCCSC(=O)c1ccccc1		7.71 µM		0.0801 µM		0.371 µM		3.75 µM						
COc1cc2c3c(n(CCCNCC(OC)OC)c(=O)c2cc1OC)-c1cc2c(cc1C3=O)OCO2	3.09 µM	20 µM			10.4 µM	97 µM	4.06 µM	> 29.6 µM						
C=C(C)[C@@H]1CC[C@]2(C(=O)NCCNCCNCCN)CC[C@]3(C)[C@H](CC[C@@H]4[C@@]5(C)CC[C@H](O)C(C)(C)[C@@H]5CC[C@]43C)[C@@H]12	15.1 µM	37.1 µM	11.1 µM	23.4 µM	13.4 µM	27.2 µM	15 µM	57.5 µM	14.1 µM	29.5 µM				
C=CCNCCCN1C(=O)c2ccc3c4c(ccc(c24)C1=O)C(=O)N(CCCNCC=C)C3=O	0.681 µM	5.91 µM	0.182 µM	0.395 µM	0.199 µM	0.434 µM	1.78 µM	3.63 µM	0.428 µM	1.54 µM				
Cc1ccc(NC(=O)c2cc3ccccc3c(N=Nc3ccccc3O)c2O)c(C)c1		8.77 µM		3.35 µM						18.7 µM				
CN1CCN(c2nc(NCCCCNc3ccnc4cc(Cl)ccc34)c3ccccc3n2)CC1	2.14 µM	5.93 µM	1.78 µM	3.19 µM	1.97 µM	4.25 µM	3.45 µM	15 µM	2.59 µM	7.12 µM				
COC1(O)C(=O)c2ccccc2OC1(OC)c1ccccc1 (stereo not given)		> 100 µM		> 100 µM		> 100 µM		> 100 µM		> 100 µM				
CCc1cccc2c3c(sc12)C(c1ccc(Cl)cc1)C(C#N)=C(N)O3 (stereo not given)	1.56 µM	7.72 µM	0.898 µM	12 µM	0.196 µM	0.463 µM	0.983 µM	15.6 µM	1.32 µM	7.42 µM				
